For assay [1], the system named is E. coli JM83 cells harboring pUC19. The experiment in a line: Minimum inhibitory concentrations on LB plates, cells harboring pUC19. The assay is classed as cell-based. The settings on record: Escherichia coli, cells with pUC19, 37 °C, 20 h, same for 3.5 × 10^5 and 3.5 × 10^3 cells. The procedure:
(§1) The E. coli wild-type cells harboring pUC19 or pSP007 plasmid were grown overnight in LB medium containing ampicillin. The cells were diluted 10- and 1000-times, and 5 µl of each dilution (corresponding to 3.5×10^5 cells and 3.5×10^3 cells, respectively) was spotted on LB plates containing serial dilutions of kanamycin, chloramphenicol, spectinomycin, tetracycline and DHCP. Plates were incubated at 37° C. for 20 h. […] The MIC values for cells harboring pUC19 and pSP007 were same for spectinomycin, chloramphenicol and tetracycline. The MIC value was two times higher for kanamycin for the cells harboring pSP007 than the cells with pUC19. The MIC value for DHCP on the other hand was 8 times higher for the cells-harboring pSP007 than that for the cells with pUC19.
(§2) MICs for both dilutions of the cells (3.5×10^5 and 3.5×10^3) were the same.

Assay [2] has as its system E. coli JM83 cells harboring pSP007. The experiment in a line: Minimum inhibitory concentrations on LB plates, cells harboring pSP007 (dep, ORF389). The assay is classed as cell-based, Escherichia coli. As to conditions: for MIC: Escherichia coli, cells with pSP007, LB plates, 37 °C, 20 h, same for 3.5 × 10^5 and 3.5 × 10^3 cells; for MIC value for cells harboring pSP007 relative to cells with pUC19: pSP007 versus pUC19. The procedure: as §1, §2

Assay [3] concerns E. coli wild-type strain JM83. Kind of assay: Effect of DHCP on the growth of E. coli in LB medium (Klett units). The assay is classed as cell-based, Escherichia coli. The settings on record: for effect on growth: LB medium. The procedure:
(§3) A. The JM83 cells were grown in LB medium up to Klett unit of 50 and DHCP was added at various concentrations (0-400 µM). After the growth reached to Klett unit of 90-100, cells were diluted with medium containing respective concentrations of DHCP and growth was further monitored. DHCP concentration: 0 . mu.M, open squares; 50 . mu.M, closed diamonds; 100 µM, open circles; 250 . mu.M, open diamonds; 400 . mu.M closed squares. [0023] B. Overnight grown cells of E. coli JM83 were diluted appropriately and plated on LB plates containing different concentrations of DHCP (0-350 . mu.M). The number of colonies on the plate without DHCP was taken as 100% and the other numbers were expressed as relative percentages.
The E. coli wild-type strain JM83 [F^-araΔ (lac-proAB) rpsL(st^r)](Yanisch-Perron et al., 1985) was grown in Luria broth (LB). Media were supplemented with ampicillin (final concentration of 50 . mu.g/ml) whenever required. To check the effect of DHCP on the growth of E. coli, cells grown overnight in LB medium were diluted into fresh LB medium. After the growth reached to the Klett unit of 50, DHCP was added at various concentrations (0-400 . mu.M) and growth was further monitored. After it reached to the Klett unit of 90-100, it was diluted I O-fold into media containing respective concentrations of DHCP. […] In the presence of 400 . mu.M DHCP, cell growth stopped after 4 h of incubation.

The subject of assay [4] is E. coli JM83. The experiment in a line: Colony formation ability of E. coli on LB plates containing DHCP. The assay is classed as cell-based, Escherichia coli. The protocol: as §3
To check the colony formation ability of E. coli at various concentrations of DHCP, cells grown overnight in LB medium were diluted appropriately and plated on LB plates containing DHCP (0-350 . mu.M). After incubation at 37. degree. C., the number of colonies on each plate were counted. The number of colonies on the control plate without DHCP was taken as 100% and the other numbers were expressed as relative percentages (FIG. 2B). In the presence of 300 µM DHCP, 100-fold decrease in the colony numbers was observed.

As a reminder, the MIC is the smallest concentration in the dilution series that meets the test's criterion for growth inhibition.

Each structure is given as a SMILES string. In brackets after ≈: the same amount, converted by molar mass. Some results are limits rather than exact numbers.

For the compound `O=C(N[C@H](CO)[C@H](O)c1ccc([N+](=O)[O-])cc1)C(Cl)Cl` [chloramphenicol], the MIC in assay [1] stood at 6.25 µg/mL (≈ 19.3 µM). Further, in assay [2], the MIC stood at 6.25 µg/mL (≈ 19.3 µM) and the “MIC value for cells harboring pSP007 relative to cells with pUC19” value was “same”.

Regarding `CN(C)[C@@H]1C(O)=C(C(N)=O)C(=O)[C@@]2(O)C(O)=C3C(=O)c4c(O)cccc4[C@@](C)(O)[C@H]3C[C@@H]12` [tetracycline], the minimal inhibitory concentration (MIC) in assay [1] and in assay [2] was 3.12 µg/mL (≈ 7.03 µM) throughout.

On to `CN[C@@H]1[C@H](O)[C@H](NC)[C@H]2O[C@@]3(O)C(=O)C[C@@H](C)O[C@H]3O[C@@H]2[C@H]1O` [spectinomycin], for which, in assay [1], the MIC stood at 12.5 µg/mL (≈ 37.6 µM). Besides, in assay [2], the MIC was found to be 12.5 µg/mL (≈ 37.6 µM) and the “MIC value for cells harboring pSP007 relative to cells with pUC19” value is on record as “same”.

For the compound `O=C1C=CC(O)C1O` (stereo not drawn) [DHCP, 4,5-dihydroxy-2-cyclopenten-1-one], the MIC in assay [1] worked out at 25 µg/mL (≈ 219 µM); in assay [2], 200 µg/mL (≈ 1750 µM). The “MIC value for cells harboring pSP007 relative to cells with pUC19” value in assay [2] was found to be 8 times. Further, the values for the effect on growth entry in assay [3] (50 μM DHCP), in assay [3] (100 μM DHCP) and in assay [3] (250 μM DHCP) were “growth was slowed after 3 h of incubation”, “grew more slowly after 3 h incubation” and “growth was severely impaired after 3 h of incubation”, respectively. Further, the “time to reach the maximum density” value in assay [3] (50 μM DHCP, similar to that without DHCP) came to 8 h. For the same compound, in assay [3] (100 μM DHCP, versus without DHCP), the maximum cell density result is given as “lower than that without DHCP”. For the same compound, the “time after which cells stopped growing” value in assay [3] (250 μM DHCP) is reported as 5 h. Besides, in assay [3] (250 μM DHCP for 8 h, microscopic examination), the “length of elongated cells (filaments) relative to control cells” value is reported as “approximately 15 fold”. The “time after which cell growth stopped” value in assay [3] (400 μM DHCP) is reported as 4 h. Also, in assay [4] (300 μM DHCP, LB plates, 37 °C), the “decrease in the colony numbers” value amounted to 100 fold. Besides, the colony formation entry in assay [4] (350 μM DHCP, 1×10^4 cells plated on LB medium) is recorded as “no colonies were obtained”. Further, in assay [4] (E. coli), the “concentration at which DHCP inhibits cell growth” value is at least 350 µM.

Consider `NC[C@H]1O[C@H](O[C@H]2[C@H](O)[C@@H](O[C@H]3O[C@H](CO)[C@@H](O)[C@H](N)[C@H]3O)[C@H](N)C[C@@H]2N)[C@H](O)[C@@H](O)[C@@H]1O` [kanamycin], for which the values for the minimal inhibitory concentration (MIC) in assay [1] and in assay [2] were 25 µg/mL (≈ 51.6 µM) and 50 µg/mL (≈ 103 µM), respectively.

Source of the values: patent US7476526B2, “Method of using a gene conferring resistance to 4,5-dihydroxy-2-cyclopenten-1-one (DHCP) and identifying inhibitors of a polypeptide encoded by the gene” (priority 2000, dated 2009).
